The first experiment concerns the target rBIIa/beta 1 sodium channels expressed in Xenopus oocytes (Rattus norvegicus, UniProt P04775). Description: Electrophysiological assay, two-electrode voltage clamp in oocytes, inactivated-state protocol. It is filed as cell-based.
Conditions: not given
The method, then:
An electrophysiological assay was used to measure potencies of compounds of the present invention rBIIa/beta 1 sodium channels expressed in Xenopus oocytes.
Preparation of cRNA encoding cloned rat brain type IIa (rBIIa) and beta 1 (β1): cDNA clones encoding the rat brain beta 1 subunit are cloned in house using standard methods, and mRNA are prepared by standard methods. mRNA encoding rBIIa is provided by Dr. A. Golden (UC Irvine). The mRNAs are diluted and stored at −80° C. in 1 μL aliquots until injection.
Preparation of oocytes: Mature female Xenopus laevis are anaesthetized (20–40 min) using 0.15% 3-aminobenzoic acid ethyl ester (MS-222) following established procedures (Woodward, R. M., et al., Mol. Pharmacol. 41:89–103 (1992)).
Two to six ovarian lobes are surgically removed. Oocytes at developmental stages V–VI are dissected from the ovary, wherein the oocytes are still surrounded by enveloping ovarian tissues. Oocytes are defolliculated on the day of surgery by treatment with collagenase (0.5 mg/mL Sigma Type I, or Boehringer Mannheim Type A, for 0.5–1 hr). Treated oocytes are vortexed to dislodge epithelia, washed repeatedly and stored in Barth's medium containing 88 mM NaCl, 1 mM KCl, 0.41 mM CaCl2, 0.33 mM Ca(NO3)2, 0.82 mM MgSO4, 2.4 mM NaHCO3, 5 mM HEPES, pH 7.4 adjusted with 0.1 mg/mL gentamycin sulphate.
Micro-injection of oocytes: Defolliculated oocytes are micro-injected using a Nanoject injection system (Drummond Scientific Co., Broomall, Pa.). Injection pipettes are beveled to minimize clogging. Tip diameter of injection pipettes is 15–35 μm. Oocytes are microinjected with approximately 50 nL 1:10 ratio mixtures of cRNAs for rBIIa and beta 1 respectively.
Electrophysiology: Membrane current responses are recorded in frog Ringer solution containing 115 mM NaCl, 2 mM KCl, 1.8 mM CaCl2, 5 mM HEPES, pH 7.4. Electrical recordings are made using a conventional two-electrode voltage clamp (Dagan TEV-200) over periods ranging between 1–7 days following injection. The recording chamber is a simple gravity fed flow-through chamber (volume […] depending on adjustment of aspirator). Oocytes are placed in the recording chamber, impaled with electrodes and continuously perfused (5–15 mL min^−1) with frog Ringer's solution. The tested compounds are applied by bath perfusion.
Voltage protocols for evoking sodium channel currents: The standard holding potential for whole oocyte clamp is −120 mV. Standard current-voltage relationships are elicited by 40 ms depolarizing steps starting from −60 mV to +50 mV in 10 mV increments. Peak currents are measured as the maximum negative current after depolarizing voltage steps. The voltage from maximum current response is noted and used for the next voltage protocol.
The purpose is to find compounds that are state dependent modifiers of neuronal sodium channels. Preferably, the compounds have a low affinity for the rested/closed state of the channel, but a high affinity for the inactivated state. The following voltage protocol is used to measure a compounds affinity for the inactivated state. Oocytes are held at a holding potential of −120 mV. At this membrane voltage, nearly all of the channels are in the closed state. Then a 4 second depolarization is made to the voltage where the maximum current is elicited. At the end of this depolarization, nearly all the channels are in the inactivated state. A 10 ms hyperpolarizing step is then made in order to remove some channels from the inactivated state. A final depolarizing test pulse is used to assay the sodium current after this prolonged depolarization (see analysis below). Sodium currents are measured at this test pulse before and after the application of the tested compound. Data is acquired using PCLAMP 8.0 software and analyzed with […] software (Axon instruments). […]
(In two-electrode clamp one electrode senses voltage and the other passes current.)
rBIIa/beta 1 sodium channels expressed in Xenopus oocytes, sequence (P04775 whole entry): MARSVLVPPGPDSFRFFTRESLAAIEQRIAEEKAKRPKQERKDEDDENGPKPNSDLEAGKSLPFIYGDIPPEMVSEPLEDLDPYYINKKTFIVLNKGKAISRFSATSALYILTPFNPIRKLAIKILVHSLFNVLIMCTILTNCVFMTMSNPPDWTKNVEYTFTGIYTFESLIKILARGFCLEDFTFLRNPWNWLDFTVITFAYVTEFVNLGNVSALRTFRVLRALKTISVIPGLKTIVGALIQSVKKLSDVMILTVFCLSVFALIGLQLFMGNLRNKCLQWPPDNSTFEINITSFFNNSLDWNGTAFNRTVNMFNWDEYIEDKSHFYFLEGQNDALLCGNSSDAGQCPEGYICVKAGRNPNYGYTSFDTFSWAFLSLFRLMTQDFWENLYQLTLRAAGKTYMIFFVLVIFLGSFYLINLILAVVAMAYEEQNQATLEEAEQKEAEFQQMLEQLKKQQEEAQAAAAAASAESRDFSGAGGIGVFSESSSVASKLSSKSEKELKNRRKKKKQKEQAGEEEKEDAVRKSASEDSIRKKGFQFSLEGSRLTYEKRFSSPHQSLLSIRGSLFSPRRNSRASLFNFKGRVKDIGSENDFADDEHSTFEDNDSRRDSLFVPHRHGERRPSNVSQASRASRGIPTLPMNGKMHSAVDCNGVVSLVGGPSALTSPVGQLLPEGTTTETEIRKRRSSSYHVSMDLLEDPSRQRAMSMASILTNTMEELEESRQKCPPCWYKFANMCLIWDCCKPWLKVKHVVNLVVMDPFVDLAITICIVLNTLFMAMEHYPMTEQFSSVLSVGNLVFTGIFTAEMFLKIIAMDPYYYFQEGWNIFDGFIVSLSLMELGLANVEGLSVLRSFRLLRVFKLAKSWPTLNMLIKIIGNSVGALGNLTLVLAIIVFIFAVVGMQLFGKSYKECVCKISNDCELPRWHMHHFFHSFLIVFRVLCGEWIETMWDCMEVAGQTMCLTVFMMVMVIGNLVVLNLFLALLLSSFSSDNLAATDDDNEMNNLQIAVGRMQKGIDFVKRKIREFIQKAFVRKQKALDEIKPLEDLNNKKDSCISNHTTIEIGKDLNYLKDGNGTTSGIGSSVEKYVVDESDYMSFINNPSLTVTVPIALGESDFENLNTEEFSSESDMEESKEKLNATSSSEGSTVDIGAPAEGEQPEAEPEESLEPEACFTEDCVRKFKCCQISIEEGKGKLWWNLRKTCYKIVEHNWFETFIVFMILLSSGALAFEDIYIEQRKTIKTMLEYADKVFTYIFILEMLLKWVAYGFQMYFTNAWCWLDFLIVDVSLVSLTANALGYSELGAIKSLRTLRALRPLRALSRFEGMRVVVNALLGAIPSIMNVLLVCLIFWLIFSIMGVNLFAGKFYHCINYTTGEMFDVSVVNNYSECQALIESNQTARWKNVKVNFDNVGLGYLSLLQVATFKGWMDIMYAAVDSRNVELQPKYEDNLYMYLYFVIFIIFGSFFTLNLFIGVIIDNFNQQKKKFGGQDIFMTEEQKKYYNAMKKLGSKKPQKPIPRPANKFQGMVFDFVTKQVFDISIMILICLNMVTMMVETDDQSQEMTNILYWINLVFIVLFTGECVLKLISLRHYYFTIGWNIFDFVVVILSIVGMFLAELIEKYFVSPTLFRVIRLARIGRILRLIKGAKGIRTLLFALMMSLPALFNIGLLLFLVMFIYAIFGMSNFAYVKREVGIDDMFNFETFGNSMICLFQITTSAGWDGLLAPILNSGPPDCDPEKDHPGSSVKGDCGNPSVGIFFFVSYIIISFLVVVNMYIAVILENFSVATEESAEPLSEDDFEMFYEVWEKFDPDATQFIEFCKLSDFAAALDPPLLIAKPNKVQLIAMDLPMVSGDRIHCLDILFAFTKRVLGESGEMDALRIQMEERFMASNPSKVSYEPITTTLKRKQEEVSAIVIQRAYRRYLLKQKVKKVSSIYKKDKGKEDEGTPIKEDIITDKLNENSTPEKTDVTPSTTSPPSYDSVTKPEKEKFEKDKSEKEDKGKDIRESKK
rBIIa/beta 1 sodium channels expressed in Xenopus oocytes, sequence (Q00954 19-218 partner): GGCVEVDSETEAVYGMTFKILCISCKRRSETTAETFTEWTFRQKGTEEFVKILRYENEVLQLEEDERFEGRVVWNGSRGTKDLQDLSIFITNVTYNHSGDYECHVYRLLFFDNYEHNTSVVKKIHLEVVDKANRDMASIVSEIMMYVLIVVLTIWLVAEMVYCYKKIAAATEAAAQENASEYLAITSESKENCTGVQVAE
In turn, `O=C1CSC(C=Cc2ccccc2)N1CCN1CCCCC1` (centres unmarked) showed a Ki of 8790 nM.

The same experiment, now with this note: apparent inhibition constant from single point inhibition data; rat brain type IIa/beta 1 Na+ channels in Xenopus oocytes; inactivated state; read-out: Ki (oocyte).
Consider `O=C1CSC(c2cccc(Oc3ccccc3)c2)N1CCN1CCCCC1` (centres unmarked), for which the Ki amounted to 430 nM.

As for `O=C1CSC(C=C(c2ccccc2)c2ccccc2)N1CCN1CCCCC1` (centres unmarked), the Ki turned out to be 290 nM.

As for `CC(C)(C)c1ccc(Oc2cccc(C3SCC(=O)N3CCN3CCCCC3)c2)cc1` (centres unmarked), the Ki came to 180 nM.

In the case of `O=C1CSC(c2ccc(-c3ccc(Cl)cc3)o2)N1CCN1CCCCC1` (centres unmarked), the Ki was 600 nM.

Consider `O=C1CSC(c2cccc(Oc3ccc(Cl)c(Cl)c3)c2)N1CCN1CCCCC1` (centres unmarked), for which the Ki came out at 180 nM.

With `O=C1CSC(c2cccc(OCc3ccccc3)c2)N1CCN1CCCCC1` (centres unmarked), the Ki was 390 nM.

Regarding `O=C1CSC(c2cccc(Oc3ccc(Cl)cc3)c2)N1CCN1CCCCC1` (centres unmarked), the Ki was determined as 390 nM.

Turning to `O=C1CSC(c2ccc(Oc3ccc(F)cc3)cc2)N1CCN1CCCCC1` (centres unmarked), the Ki is 500 nM.

With `COc1ccc(Oc2cccc(C3SCC(=O)N3CCN3CCCCC3)c2)cc1` (centres unmarked), the Ki was 800 nM.

For `O=C1CSC(C#Cc2ccccc2)N1CCN1CCCCC1` (centres unmarked), the Ki came to 5350 nM.

In the case of `O=C1CSC(c2cccc3ccccc23)N1CCN1CCCCC1` (centres unmarked), the Ki is 2830 nM.

As for `CC1SCC(=O)N1CCN1CCCCC1` (centres unmarked), the Ki amounted to 70700 nM.

Take `O=C1CSC(C=C(c2ccccc2)c2ccccc2)N1CCN1CCCC1` (centres unmarked): the Ki was found to be 3480 nM.

`CN(C)CCN1C(=O)CSC1C=C(c1ccccc1)c1ccccc1` (centres unmarked): the Ki is 2600 nM.

Take `CN(C)CCN1C(=O)CSC1c1cccc(Oc2ccc(C(C)(C)C)cc2)c1` (centres unmarked): the Ki came out at 840 nM.

With `O=C1CSC(c2cccc(Oc3ccccc3)c2)N1C1CCN(Cc2ccccc2)CC1` (centres unmarked), the Ki was found to be 250 nM.

Take `O=C1CSC(c2cccc(OCc3ccccc3)c2)N1CCCn1ccnc1` (centres unmarked): the Ki was 6550 nM.

Regarding `O=C1CSC(c2cccc(Oc3cccc(C(F)(F)F)c3)c2)N1Cc1ccccn1` (centres unmarked), the Ki was found to be 3400 nM.

With `CN(C)CCN1C(=O)CSC1c1cccc(Oc2cc(Cl)cc(Cl)c2)c1` (centres unmarked), the Ki turned out to be 840 nM.

As to `CN(C)CCCN1C(=O)CSC1c1cccc(Oc2cc(Cl)cc(Cl)c2)c1` (centres unmarked), the Ki came out at 1880 nM.

For the compound `O=C1CSC(c2ccc(Oc3ccc(F)cc3)cc2)N1C1CCN(Cc2ccccc2)CC1` (centres unmarked), the Ki turned out to be 280 nM.

As to `O=C1CSC(c2cccc(Oc3cccc(C(F)(F)F)c3)c2)N1CCN1CCCC1` (centres unmarked), the Ki was determined as 420 nM.

`CCn1c2ccccc2c2cc(C3SCC(=O)N3CCN3CCCC3)ccc21` (centres unmarked): the Ki is 7400 nM.

In the case of `O=C1CSC(c2cccc(OCc3ccccc3)c2)N1CCN1CCCC1` (centres unmarked), the Ki was 3430 nM.

For `O=C1CSC(c2cccc(Oc3ccc(Cl)c(Cl)c3)c2)N1CCN1CCOCC1` (centres unmarked), the Ki worked out at 810 nM.

Turning to `O=C1CSC(c2cccc(Oc3ccc(Cl)c(Cl)c3)c2)N1CCN1CCCC1` (centres unmarked), the Ki turned out to be 720 nM.

With `O=C1CSC(c2cccc(Oc3cccc(C(F)(F)F)c3)c2)N1CCCn1ccnc1` (centres unmarked), the Ki was found to be 1150 nM.

As for `CN(C)CCCN1C(=O)CSC1c1cccc(Oc2cccc(C(F)(F)F)c2)c1` (centres unmarked), the Ki was 2750 nM.

Turning to `O=C1CSC(c2cccc(Oc3cccc(C(F)(F)F)c3)c2)N1CCNCc1ccccc1` (centres unmarked), the Ki is 50 nM.

In the case of `CC(C)N(CCN1C(=O)CSC1c1cccc(Oc2cccc(C(F)(F)F)c2)c1)C(C)C` (centres unmarked), the Ki came to 30 nM.

In the case of `CN(C)CC(C)(C)CN1C(=O)CSC1c1cccc(Oc2ccc(Cl)c(Cl)c2)c1` (centres unmarked), the Ki is 390 nM.

Consider `CC1CCCCN1CCCN1C(=O)CSC1c1cccc(Oc2ccc(Cl)c(Cl)c2)c1` (centres unmarked), for which the Ki is 880 nM.

For the compound `CN(C)CC(C)(C)CN1C(=O)CSC1c1cccc(Oc2cccc(C(F)(F)F)c2)c1` (centres unmarked), the Ki turned out to be 230 nM.

As for `CC1CCCCN1CCCN1C(=O)CSC1c1cccc(Oc2cccc(C(F)(F)F)c2)c1` (centres unmarked), the Ki was 1320 nM.

For the origin of these results see patent US7169782B2, “Aryl substituted thiazolidinones and the use thereof” (Euro-Celtique S.A., priority 2001, dated 2007).
